Experimental data published in ChEMBL document CHEMBL4673219, “Novel 5,6-disubstituted pyrrolo[2,3-d]pyrimidine derivatives as broad spectrum antiproliferative agents: Synthesis, cell based assays, kinase profile and molecular docking study” (Bioorg Med Chem, 2018).
Several values for one entry are separate records, joined by “and”; a condition that tells them apart may be missing. Identical values can stand only once.

Assays:
[1] = system: HCT-116; test: Growth inhibition of human HCT-116 cells assessed as growth percentage at 0.01 uM incubated for 48 hrs by sulforhodamine B assay relative to control; type: functional; settings: read-out: Activity
[2] = system: MDA-MB-435; test: Growth inhibition of human MDA-MB-435 cells assessed as growth percentage at 10 uM incubated for 48 hrs by sulforhodamine B assay relative to control; type: functional; settings: read-out: Activity
[3] = system: NCI-H226; test: Growth inhibition of human NCI-H226 cells assessed as growth percentage at 0.1 uM incubated for 48 hrs by sulforhodamine B assay relative to control; type: functional; settings: read-out: Activity
[4] = system: RPMI-8226; test: Growth inhibition of human RPMI-8226 cells assessed as growth percentage at 10 uM incubated for 48 hrs by sulforhodamine B assay relative to control; type: functional; settings: read-out: Activity
[5] = system: SNB-75; test: Growth inhibition of human SNB-75 cells incubated for 48 hrs by sulforhodamine B assay; type: functional
[6] = system: OVCAR-4; test: Growth inhibition of human OVCAR-4 cells assessed as growth percentage at 10 uM incubated for 48 hrs by sulforhodamine B assay relative to control; type: functional; settings: read-out: Activity
[7] = system: UACC-257; test: Growth inhibition of human UACC-257 cells incubated for 48 hrs by sulforhodamine B assay; type: functional
[8] = Cytotoxicity against human HFF-1 cells assessed as cell growth inhibition by MTT assay; type: cell-based
[9] = system: Malme-3M; test: Growth inhibition of human Malme-3M cells assessed as growth percentage at 10 uM incubated for 48 hrs by sulforhodamine B assay relative to control; type: functional; settings: read-out: Activity
[10] = system: 786-0; test: Growth inhibition of human 786-0 cells assessed as growth percentage at 100 uM incubated for 48 hrs by sulforhodamine B assay relative to control; type: functional; settings: read-out: Activity
[11] = system: SW-620; test: Growth inhibition of human SW-620 cells incubated for 48 hrs by sulforhodamine B assay; type: functional; settings: for CC50: read-out: LC50 (the source's name)
[12] = system: ACHN; test: Growth inhibition of human ACHN cells assessed as growth percentage at 10 uM incubated for 48 hrs by sulforhodamine B assay relative to control; type: functional; settings: read-out: Activity
[13] = system: KM12; test: Growth inhibition of human KM12 cells assessed as growth percentage at 0.1 uM incubated for 48 hrs by sulforhodamine B assay relative to control; type: functional; settings: read-out: Activity
[14] = system: NCI-H522; test: Growth inhibition of human NCI-H522 cells incubated for 48 hrs by sulforhodamine B assay; type: functional
[15] = system: UACC-257; test: Growth inhibition of human UACC-257 cells assessed as growth percentage at 0.01 uM incubated for 48 hrs by sulforhodamine B assay relative to control; type: functional; settings: read-out: Activity
[16] = system: BT-549; test: Growth inhibition of human BT-549 cells assessed as growth percentage at 0.1 uM incubated for 48 hrs by sulforhodamine B assay relative to control; type: functional; settings: read-out: Activity
[17] = system: COLO 205; test: Growth inhibition of human COLO 205 cells assessed as growth percentage at 0.1 uM incubated for 48 hrs by sulforhodamine B assay relative to control; type: functional; settings: read-out: Activity
[18] = system: U-251; test: Growth inhibition of human U-251 cells assessed as growth percentage at 0.01 uM incubated for 48 hrs by sulforhodamine B assay relative to control; type: functional; settings: read-out: Activity
[19] = system: RPMI-8226; test: Growth inhibition of human RPMI-8226 cells incubated for 48 hrs by sulforhodamine B assay; type: functional
[20] = system: Malme-3M; test: Growth inhibition of human Malme-3M cells assessed as growth percentage at 1 uM incubated for 48 hrs by sulforhodamine B assay relative to control; type: functional; settings: read-out: Activity
[21] = system: SN12C; test: Growth inhibition of human SN12C cells assessed as growth percentage at 0.1 uM incubated for 48 hrs by sulforhodamine B assay relative to control; type: functional; settings: read-out: Activity
[22] = Cytotoxicity against human HFF-1 cells assessed as cell growth inhibition at 10 uM by MTT assay relative to control; type: cell-based; settings: read-out: GI
[23] = system: MDA-MB-435; test: Growth inhibition of human MDA-MB-435 cells assessed as growth percentage at 1 uM incubated for 48 hrs by sulforhodamine B assay relative to control; type: functional; settings: read-out: Activity
[24] = system: NCI-H23; test: Growth inhibition of human NCI-H23 cells assessed as growth percentage at 100 uM incubated for 48 hrs by sulforhodamine B assay relative to control; type: functional; settings: read-out: Activity
[25] = system: UACC-257; test: Growth inhibition of human UACC-257 cells assessed as growth percentage at 1 uM incubated for 48 hrs by sulforhodamine B assay relative to control; type: functional; settings: read-out: Activity
[26] = system: LOX IMVI; test: Growth inhibition of human LOX IMVI cells assessed as growth percentage at 0.01 uM incubated for 48 hrs by sulforhodamine B assay relative to control; type: functional; settings: read-out: Activity
[27] = system: UACC-62; test: Growth inhibition of human UACC-62 cells assessed as growth percentage at 100 uM incubated for 48 hrs by sulforhodamine B assay relative to control; type: functional; settings: read-out: Activity
[28] = system: M14; test: Growth inhibition of human M14 cells assessed as growth percentage at 100 uM incubated for 48 hrs by sulforhodamine B assay relative to control; type: functional; settings: read-out: Activity
[29] = system: SNB-75; test: Growth inhibition of human SNB-75 cells assessed as growth percentage at 1 uM incubated for 48 hrs by sulforhodamine B assay relative to control; type: functional; settings: read-out: Activity
[30] = system: HCC 2998; test: Growth inhibition of human HCC 2998 cells incubated for 48 hrs by sulforhodamine B assay; type: functional
[31] = system: MDA-MB-231; test: Growth inhibition of human MDA-MB-231/ATCC cells assessed as growth percentage at 0.1 uM incubated for 48 hrs by sulforhodamine B assay relative to control; type: functional; settings: read-out: Activity
[32] = system: MDA-MB-435; test: Growth inhibition of human MDA-MB-435 cells assessed as growth percentage at 100 uM incubated for 48 hrs by sulforhodamine B assay relative to control; type: functional; settings: read-out: Activity
[33] = system: SNB-19; test: Growth inhibition of human SNB-19 cells assessed as growth percentage at 0.01 uM incubated for 48 hrs by sulforhodamine B assay relative to control; type: functional; settings: read-out: Activity
[34] = system: TK-10; test: Growth inhibition of human TK-10 cells incubated for 48 hrs by sulforhodamine B assay; type: functional; settings: for GI50 / TGI: TK-10
[35] = system: U-251; test: Growth inhibition of human U-251 cells assessed as growth percentage at 100 uM incubated for 48 hrs by sulforhodamine B assay relative to control; type: functional; settings: read-out: Activity
[36] = system: DU-145; test: Growth inhibition of human DU-145 cells assessed as growth percentage at 100 uM incubated for 48 hrs by sulforhodamine B assay relative to control; type: functional; settings: read-out: Activity
[37] = system: OVCAR-8; test: Growth inhibition of human OVCAR-8 cells assessed as growth percentage at 0.01 uM incubated for 48 hrs by sulforhodamine B assay relative to control; type: functional; settings: read-out: Activity
[38] = system: HCT-116; test: Growth inhibition of human HCT-116 cells assessed as growth percentage at 100 uM incubated for 48 hrs by sulforhodamine B assay relative to control; type: functional; settings: read-out: Activity

Nc1nc2[nH]c(CN3CCN(c4cc(Cl)cc(Cl)c4)CC3)c(CN3CCN(c4cc(Cl)cc(Cl)c4)CC3)c2c(=O)[nH]1
growth at 0.01 µM [1]: 100% | growth at 10 µM [2]: 8.61% | growth at 0.1 µM [3]: 89% | growth at 10 µM [4]: 38.4% | GI50 [5]: 1420 nM | TGI [5]: 2740 nM | growth at 10 µM [6]: 65.8% | GI50 ([7]; Homo sapiens, UACC-257, 48 h): 2060 nM | TGI ([7]; Homo sapiens, UACC-257, 48 h): 4760 nM | GI50 [8]: > 10000 nM | growth at 10 µM [9]: 74.3% | growth at 100 µM [10]: -41% | GI50 ([11]; Homo sapiens, SW-620, 48 h): 1720 nM | TGI ([11]; Homo sapiens, SW-620, 48 h): 3500 nM | CC50 ([11]; Homo sapiens, SW-620, 48 h): 7120 nM | growth at 10 µM [12]: 96.8% | growth at 0.1 µM [13]: 105% | GI50 [14]: 1740 nM | TGI [14]: 3440 nM | growth at 0.01 µM [15]: 96% | growth at 0.1 µM [16]: 92% | growth at 0.1 µM [17]: 101% | growth at 0.01 µM [18]: 99% | TGI ([19]; Homo sapiens, RPMI-8226): 6920 nM | GI50 ([19]; Homo sapiens, RPMI-8226, 48 h): 2410 nM | growth at 1 µM [20]: 101% | growth at 0.1 µM [21]: 99% | inhibition at 10 µM [22]: 15.8% | growth at 1 µM [23]: 88% | growth at 100 µM [24]: -47% | growth at 1 µM [25]: 93% | growth at 0.01 µM [26]: 99% | growth at 100 µM [27]: -49% | growth at 100 µM [28]: -54% | growth at 1 µM [29]: 76% | GI50 ([30]; Homo sapiens, HCC 2998, 48 h): 1700 nM | TGI ([30]; Homo sapiens, HCC 2998, 48 h): 3160 nM | growth at 0.1 µM [31]: 98% | growth at 100 µM [32]: -80% | growth at 0.01 µM [33]: 96% | GI50 [34]: 1800 nM | TGI [34]: 3260 nM | growth at 100 µM [35]: -50% | growth at 100 µM [36]: -92% | growth at 0.01 µM [37]: 100% | growth at 100 µM [38]: -59%

CCCCCCCC(=O)Nc1nc2[nH]c(CN3CCN(Cc4cccc(F)c4)CC3)c(CN3CCN(Cc4cccc(F)c4)CC3)c2c(=O)[nH]1
growth at 0.01 µM [1]: 95% | growth at 10 µM [2]: -98.1% | growth at 0.1 µM [3]: 95% | growth at 10 µM [4]: -47.3% | GI50 [5]: 1340 nM | LC50 (lethal concentration, 50% cell kill) [5]: 5280 nM | TGI [5]: 2660 nM | growth at 10 µM [6]: -94% | GI50 ([7]; 48 h): 200 nM | TGI ([7]; 48 h): 460 nM | GI50 ([7]; Homo sapiens, UACC-257, 48 h): 203 nM | LC50 (concentration killing 50% of cells) ([7]; Homo sapiens, UACC-257, 48 h): 1090 nM | TGI ([7]; Homo sapiens, UACC-257, 48 h): 456 nM | GI50 [8]: > 10000 nM | growth at 10 µM [9]: -83.1% | growth at 100 µM [10]: -95% | GI50 ([11]; 48 h): 190 nM | TGI ([11]; 48 h): 380 nM | CC50 ([11]; 48 h): 740 nM | GI50 ([11]; Homo sapiens, SW-620, 48 h): 191 nM | TGI ([11]; Homo sapiens, SW-620, 48 h): 377 nM | CC50 ([11]; Homo sapiens, SW-620, 48 h): 744 nM | growth at 10 µM [12]: -96.6% | growth at 0.1 µM [13]: 93% | GI50 [14]: 1910 nM | LC50 [14]: 6880 nM | TGI [14]: 3620 nM | growth at 0.01 µM [15]: 89% | growth at 0.1 µM [16]: 85% | growth at 0.1 µM [17]: 92% | growth at 0.01 µM [18]: 97% | GI50 ([19]; 48 h): 360 nM | LC50 ([19]; 48 h): 100000 nM and > 1000 nM | GI50 ([19]; Homo sapiens, RPMI-8226, 48 h): 363 nM | growth at 1 µM [20]: 40% | growth at 0.1 µM [21]: 98% | inhibition at 10 µM [22]: 14.1% | growth at 1 µM [23]: 10% | growth at 100 µM [24]: -53% | growth at 1 µM [25]: -48% | growth at 0.01 µM [26]: 87% | growth at 100 µM [27]: -90% | growth at 100 µM [28]: -73% | growth at 1 µM [29]: 71% | GI50 ([30]; 48 h): 250 nM | TGI ([30]; 48 h): 570 nM | GI50 ([30]; Homo sapiens, HCC 2998, 48 h): 248 nM | TGI ([30]; Homo sapiens, HCC 2998, 48 h): 573 nM | CC50 ([30]; Homo sapiens, HCC 2998, read-out: LC50 (the source's name)): 2620 nM | growth at 0.1 µM [31]: 108% | growth at 100 µM [32]: -83% | growth at 0.01 µM [33]: 96% | GI50 [34]: 1740 nM | TGI [34]: 3260 nM | CC50 ([34]; TK-10, 48 h, read-out: LC50 (the source's name)): 6110 nM | growth at 100 µM [35]: -95% | growth at 100 µM [36]: -83% | growth at 0.01 µM [37]: 102% | growth at 100 µM [38]: -69%
